In PMC6530361, “Anti-tumor Efficacy Assessment of the Sigma Receptor Pan Modulator RC-106. A Promising Therapeutic Tool for Pancreatic Cancer” (Frontiers in Pharmacology, 2019):

Assays:
Capan-1 [1] = test: Migration scratch wound healing assay; type: cell-based
Experimental: (§1) Cells were seeded in a 6-well plate and were incubated at 37°C until confluence of 90–100% was reached. Culture medium was then replaced by serum free medium. After 24 h, a scratch was made on cell monolayer using a plastic tip and wells were washed 2 times with PBS to remove detached cells and debris. Culture medium, with or without RC-106, was added to each well. Micrographs of the scratches were taken at 0 h, immediately after the scratch, and at 24, 48, and 72 h. Cell migration area was quantified using IMAGEJ software.

Panc-1 [2] = test: Migration scratch wound healing assay; type: cell-based; details: Panc-1, 60 μM, all considered time points (24, 48, 72 h)
Experimental: as §1

Capan-2 [3] = test: Migration scratch wound healing assay; type: cell-based; details: Capan-2, 20 and 40 μM, after 48 and 72 h
Experimental: as §1

Capan-1 [4] = test: TUNEL assay; type: cell-based; details: Capan-1, RC-106 50 μM, 48 h
Experimental: (§2) TUNEL assay was performed as previously described ([Tesei et al., 2007]). Briefly, cells were fixed in 1% formaldehyde in PBS on ice for 15 min, suspended in 70% ice cold ethanol and stored overnight at […]. Cells were then washed twice in PBS and re-suspended in PBS containing 0.1% Triton X-100 for 5 min at […]. Thereafter, samples were incubated in 50 μL of solution containing TdT and FITC conjugated dUTP deoxynucleotides 1:1 (Roche Diagnostic GmbH, Mannheim, Germany) in a humidified atmosphere for 90 min at 37°C in the dark, washed in PBS, counterstained with propidium iodide (2.5 μg/mL, MP Biomedicals, Verona, Italy) and RNAse (10 kU/mL, Sigma–Aldrich) for 30 min at […] in the dark and analyzed by flow cytometry. Flow cytometric analysis was performed using a FACS Canto flow cytometer (Becton Dickinson, San Diego, CA, United States). Data acquisition and analysis were performed using FACSDiva software (Becton Dickinson). Samples were run in triplicate and 10,000 events were collected for each replicate.

Panc-1 [5] = test: TUNEL assay; type: cell-based; details: Panc-1, RC-106 50 μM, 48 h
Experimental: as §2

[6] = test system: proteasome activity of PANC-1, Capan-1, and Capan-2; test: Proteasome activity assay, all cell lines; type: cell-based; details: 20–100 μM, 24 h, all PC cell lines
Experimental: (§3) Cells were seeded in 6-well plates at density of 250 × 10^3 cells/well. Cells were treated with increasing concentration of RC-106 and after 24 h total protein extracts were obtained: cells were washed 2 times with PBS and lysed with 100 μL of lysis buffer (Hepes 5 mM pH 7.5, NaCl 150 mM, Glycerol 10%, Triton X100 1%, MgCl2 1.5 mM, EGTA 5 mM). Protein concentration of samples was quantified using Bradford method. Proteasome activity was quantified as described below. Proteasome solution was composed by 40 μg of proteins, 10 μL of 10X proteasome buffer (Hepes pH 7.5 250 mM, EDTA pH 8.0 5 mM, NP-40 0.5%, SDS 0.01%) and 10 μL of 10 mM proteasome substrate (N-Succinyl-Leu-Leu-Val-Tyr-7-Amido-4-Methylcoumarin, 7.6 mg/mL; Sigma-Aldrich, United States). 100 μL of proteasome solution was loaded in wells of a black 96-well plate. The plate was then incubated at 37°C for 2 h and the fluorescence was measured in a microplate reader (excitation 380 nm, emission 460 nm; BMG-Labtech, Germany).

Capan-1 [7] = test: Western Blot of caspase 3 and 9 activation; type: cell-based; details: Capan-1, 12 h, 50 μM
Experimental: (§4) Western Blot were performed as previously described ([Arienti et al., 2016]). Briefly, Cell proteins were extracted with M-PER (Thermo Fisher Scientific) supplemented with Halt Protease Phosphatase Inhibitor Cocktail (Thermo Fisher Scientific).
(§5) Mini-PROTEANTGX^TM precast gels (4–20% and any kD; BIO-RAD) were run using Mini-PROTEAN Tetra electrophoresis cells and then electroblotted by Trans-Blot Turbo^TM Mini PVDF Transfer Packs (BIORAD). The unoccupied membrane sites were blocked with T-TBS 1X (Tween 0.1%) and 5% non-fat dry milk to prevent non-specific binding of antibodies and probed with specific primary antibodies overnight at 4°C. This was followed by incubation with the respective secondary antibodies. The antibody-antigen complexes were detected with Immun-Star^TM WesternC^TM kit (BIO-RAD).
(§6) The following primary antibodies were used: anti-sigma receptor (S18): sc-22948 (Santa Cruz Biotechnology inc.), anti-TMEM97, anti-caspase-3, and anti-caspase-9. Anti-vinculin (sc-5573) from Santa Cruz Biotechnology and anti-actin from Sigma Aldrich Inc., were used as housekeeping. Quantity One Software was used for analysis.

Panc-1 [8] = test: Western Blot of caspase 3 and 9 activation; type: cell-based; details: Panc-1, 48 h, 25 μM
Experimental: as §4, §5, §6

Capan-2 [9] = test: Western Blot of caspase 3 and 9 activation; type: cell-based; details: Capan-2, 48 h, 25 μM
Experimental: as §4, §5, §6

[10] = test system: Panc-1, Capan-1, and Capan-2; test: Real-Time qRT-PCR of ER stress/UPR marker genes, all cell lines; type: cell-based; details: exposure to 50 μM; 6, 12, and 24 h
Experimental: (§7) Total cellular RNA was extracted using TRIzol reagent (Life technologies) in accordance with manufacturer’s instruction and quantified using the Nanodrop MD-1000 spectrophotometer system. Reverse transcription reactions were performed in 20 μL of nuclease free water containing 400 ng of total RNA using iScript cDNA Synthesis kit (Bio-Rad Laboratories, Hercules, CA). Real-Time PCR was run using 7500 Fast Real-Time PCR system (Applied Biosystems) and TaqMan assays to detect the expression of SIGMAR1, TMEM97, GRP78/BiP, ATF4, and CHOP genes.
(§8) Reactions were carried out in triplicate at a final volume of 20 μL containing 40 ng of cDNA template, TaqMan universal PCR Master Mix (2X), and selected TaqMan assays (20X). Samples were maintained at 50°C for 2 min, then at 95°C for 10 min followed by 40 amplification cycles at 95°C for 15 s, and at 60°C for 30 s.
(§9) The amount of mRNA was normalized to the endogenous genes GAPDH and HPRT-1.

[11] = test system: proteasome activity of Capan-2; test: Proteasome activity assay; type: cell-based; details: Capan-2, 24 h
Experimental: as §3

[12] = test system: proteasome activity of Capan-1; test: Proteasome activity assay; type: cell-based; details: Capan-1, 24 h, highest concentration used
Experimental: as §3

S2R = test system: S2R; set-up: method as in Rui et al., 2016; Rossi et al., 2017; details: ref Rui et al., 2016; Rossi et al., 2017; cited from earlier work
Capan-2 [13] = test: Real-Time qRT-PCR of ER stress/UPR marker genes; type: cell-based; details: Capan-2, RC-106 50 μM, higher than untreated cells
Experimental: as §7, §8, §9

SMILES: C/C(=C\CN1CCC(Cc2ccccc2)CC1)c1ccc2ccccc2c1 [RC-106, (E)-4-benzyl-1-(3-(naphthalen-2-yl)but-2-en-1-yl)piperidine]
- cell migration (Capan-1 [1]; Capan-1, 20 μM, after 48 h): significantly reduced
- cell migration (Capan-1 [1]; Capan-1, 40 and 60 μM, after 24 h): reduced cell migration
- cell migration (Panc-1 [2]): significatively reduced
- cell migration (Capan-2 [3]): significatively reduceded
- percentage of apoptotic cells (Capan-1 [4]): 78.55%
- percentage of apoptotic cells (Panc-1 [5]): 53.25%
- proteasome activity [6]: reduce proteasome activity in a dose dependent manner
- caspases 3 and 9 cleavage (Capan-1 [7]): cleaved
- caspases 3 and 9 cleavage (Panc-1 [8]): cleaved
- caspases 3 and 9 cleavage (Capan-2 [9]): cleaved
- mRNA expression of ER markers GRP78/BiP, ATF4, and CHOP [10]: highly increased
- lowest concentration used to inhibit proteasome activity [11]: 20 µM
- concentration at which greatest proteasome inhibition is observed [12]: 100 µM
- S2R modulatory profile (S2R): S2R agonist
- increase in expression of CHOP mRNA (Capan-2 [13]): 70 fold
